Reference: patent US20120009271A1, “METHOD OF DISEASE-INDUCED AND RECEPTOR-MEDIATED STEM CELL NEUROPROTECTION” (MEDICAL COLLEGE OF GEORGIA, priority 2009, published 2012)
Entries after “also recorded” stand apart in the source; their conditions may differ.

What was measured:
[1] = tested on: OGD-exposed primary rat cells; assay: Oxygen glucose deprivation (OGD) injury model, cell viability (Trypan blue and MTT assay); settings: AECs 5,000 per well or melatonin 100 uM; 20,000 rat cells per well
Experimental: To reveal the neuroprotective effects of these stem cells, cultured primary rat cells (gestation age 18) were initially exposed to OGD and immediately thereafter stem cells or conditioned media (harvested from OGD-exposed stem cells over 7 days) were added. Parallel sister cultures included non-OGD exposed rat cells (positive control). Stem cell doses were varied at 0 (negative control), 2.5%, 5%, 10% or 25% of total cell population per well. After 3 hours of stem cell or conditioned media treatment, cell viability (Trypan blue and MTT assay) and ELISA were performed.
Cultured primary rat cells (gestation age 18) were initially exposed to the oxygen glucose deprivation (OGD) injury model (92% N2 and 8% O2 gas for 90 minutes), and immediately thereafter AECs, AMCs or conditioned media (harvested from AECs or AMCs cultured over 7 days) were added to the OGD-exposed cells. Parallel sister cultures included non-OGD exposed rat cells (positive control). Placenta cell doses were varied at 0 (negative control), 2.5%, 5%, 10% or 25% of total cell population per well. After 3 hours of placenta cell or conditioned media treatment, cell viability (Trypan blue and MTT assay) and ELISA were performed.
Cultured primary rat cells (gestation age 18; 20,0000 cells per well) were initially exposed to the OGD injury model (92% N2 and 8% 02 gas for 90 minutes). […]

[2] = tested on: cultured human amniotic epithelial cells (AECs); assay: Immunocytochemistry of proliferation and differentiation of cultured AECs with or without melatonin; format: cell-based
Source text: This is true for both control cells and cells treated with melatonin.

[3] = tested on: cultured human amnion stem cells; assay: Oxidative stress (H202) in cultured human amnion stem cells, cell survival (Hoechst 33258, trypan blue); format: cell-based; settings: pre-treatment with melatonin 100 μM; H202 100 μM at day 4, survival at day 5; versus non-melatonin treated cells
[4] = in vivo; cited from earlier work

In the case of COc1ccc2[nH]cc(CCNC(C)=O)c2c1 [melatonin, N-acetyl-5-methoxytryptamine], the “neuroprotection against experimental stroke (OGD), single treatment” value [1] was “exerted neuroprotection”, the “total TuJ1 positive cells in 5 fields (dendrite +/-)” value ([2]; 100 μM Melatonin versus control, FIG. 14A) was “increased the total number of cells expressing Tull” and the “total nestin positive or nestin/MelR1 positive cells in 5 fields” value ([2]; 100 μM Melatonin versus control, FIG. 14B) was “increases the total number of nestin positive or nestin/MelR1 positive expressing cells”. For the same compound, the “neural differentiation (TuJ1 and GFAP) of melatonin receptor 1-expressing AECs” value ([2]; melatonin in growth media) was “enhanced neural differentiation”, the “proliferation of melatonin receptor 1-expressing AECs” value ([2]; melatonin in growth media) was “dose-dependently suppressed proliferation” and the “cell survival after oxidative stress” value [3] was “protected against cell death; also recorded: significantly greater”. For the same compound, the half life [4] was 30 to 53 min.
